Source: article doi:10.1101/717207v1 (bioRxiv, 2019)

Legend:
[1] = Peptide binding to heparin studied by ITC; details: heparin into peptide, PBS, one site model, average of two experiments
[2] = Peptide binding to POPG LUVs studied by ITC; details: POPG LUVs into peptide, PBS, one site model, once or twice
[3] = Perturbation of DMPG membrane organization probed by DSC; assay type: physicochemical; details: DMPG MLVs 1 mg/mL in PBS, peptide-to-lipid ratio 1/50, 1°C/min, 0-50°C
[4] = Peptide secondary structure by ATR-FTIR in the absence or presence of heparin; assay type: physicochemical; details: for Percentage of structural elements: β-strand: ATR-FTIR amide I deconvolution, 1627 cm^-1; for Percentage of structural elements: Random coil / Percentage of structural elements: α-Helix / Percentage of structural elements: Turn: ATR-FTIR; for Percentage of structural elements: Random coil: 1643 cm^-1; for Percentage of structural elements: α-Helix: 1659 cm^-1; for Percentage of structural elements: Turn: 1679 cm^-1
[5] = +Hep (8.3 µM heparin, peptide per ITC stoichiometry)

Row | TΔS [1] [kcal/mol] | ΔH [1] [kcal/mol] | TΔS [2] [kcal/mol] | ΔH [2] [kcal/mol] | effect on DMPG bilayer organization (phase transitions) [3] | Percentage of structural elements: β-strand ([4]; peptide alone, 100 µM in PBS) [%] | Percentage of structural elements: Random coil [4, 5] [%] | Percentage of structural elements: Random coil ([4]; peptide alone, 100 µM in PBS) [%] | Percentage of structural elements: α-Helix [4, 5] [%] | Percentage of structural elements: α-Helix ([4]; peptide alone, 100 µM in PBS) [%] | Percentage of structural elements: Turn [4, 5] [%] | Percentage of structural elements: Turn ([4]; peptide alone, 100 µM in PBS) [%] | Sequence
1 | -71.5 | -81.7 | 6.2 | -0.72 |  |  |  |  |  |  |  |  | RRRRWRRRR [Peptide R8W1-1]
2 | -82.9 | -93.5 | 6.7 | -0.81 |  |  |  |  |  |  |  |  | RWRWRRRRR [nR7W2]
3 | -82.0 | -92.3 | 6.7 | -0.79 |  |  |  |  |  |  |  |  | RRRRRRRRW [Peptide R8W1-2]
4 | -80.5 | -91.1 | 6.2 | -0.74 | almost identical to that of aR6W3 |  |  |  |  |  |  |  | RRDWDWRRDWRR [Peptide R6DW3]
5 | -86.3 | -96.8 | 6.2 | -0.84 |  | 22 | 20 | 18 | 26 | 25 | 37 | 35 | RRRWRRWRR [aR7W2]
6 | -169.0 | -179.3 | 5.7 | -2.10 |  | 17 | 22 | 22 | 26 | 26 | 32 | 35 | RWWWWRRRR [nR5W4]
7 | -113.0 | -123.3 | 6.5 | -1.27 |  | 21 | 24 | 23 | 27 | 25 | 22 | 31 | RRWRRRRWW [nR6W3]
8 | -165.9 | -176.6 | 5.0 | -2.53 |  | 11 | 20 | 24 | 30 | 29 | 30 | 36 | RRWWRRWWR [aR5W4]
9 | -105.6 | -116.4 | 5.7 | -1.39 |  | 13 | 24 | 17 | 28 | 30 | 40 | 40 | RRWWRRWRR [aR6W3]

Row | Sequence | TΔS [1] [kcal/mol] | ΔH [1] [kcal/mol] | TΔS [2] [kcal/mol] | ΔH [2] [kcal/mol] | effect on DMPG bilayer organization (phase transitions) [3] | Percentage of structural elements: β-strand ([4]; peptide alone, 100 µM in PBS) [%] | Percentage of structural elements: Random coil [4, 5] [%] | Percentage of structural elements: Random coil ([4]; peptide alone, 100 µM in PBS) [%] | Percentage of structural elements: α-Helix [4, 5] [%] | Percentage of structural elements: α-Helix ([4]; peptide alone, 100 µM in PBS) [%] | Percentage of structural elements: Turn [4, 5] [%] | Percentage of structural elements: Turn ([4]; peptide alone, 100 µM in PBS) [%]
10 | RRRRRRRRR [Peptide R9] | -60.5 | -71.7 | 7.4 | -0.60 |  |  |  |  |  |  |  | 
